Experiments:
Assay type in all cases: cell-based, human
[1] = test system: p53 in A2780 cells; assay: p53 ELISA (preservation of p53 in A2780 cells); conditions: lowest dose giving at least 140% of the p53 value in the control, 16 hours treatment
Description: The capacity of the compounds to preserve p53 in A2780 cells was measured with the p53 enzyme linked immunosorbent assay (ELISA). The p53 assay is a “sandwich” enzyme immunoassay employing two polyclonal antibodies. A polyclonal antibody, specific for the p53 protein, has been immobilized onto the surface of the plastic wells. Any p53 present in the sample to be assayed will bind to the capture antibody. The biotinylated detector polyclonal antibody also recognizes p53 protein, and will bind to any p53, which has been retained by the capture antibody. The detector antibody, in turn, is bound by horseradish peroxidase-conjugated streptavidin. The horseradish peroxidase catalyses the conversion of the chromogenic substrate o-phenylene diamine, the intensity of which is proportional to the amount of p53 protein bound to the plate. The coloured reaction product is quantified using a spectrophotometer. Quantitation is achieved by the construction of a standard curve using known concentrations of purified recombinant HIS tagged p53 protein (see example C.1).
A2780 cells (ATCC) were cultivated in RPMI 1640 supplemented with 10% fetal calf serum (FCS), 2 mM L-glutamine and gentamycin at 37° C. in a humidified incubator with 5% CO2.
A2780 cells were seeded at 20.000 cells per well in a 96 well plate, cultured for 24 hours and treated with compound for 16 hours at 37° C. in a humidified incubator. After incubation, the cells were washed once with phosphate-buffered saline and 30 μl, per well, low salt RIPA buffer (20 mM tris, pH7.0, 0.5 mM EDTA, 1% Nonidet P40, 0.5% DOC, 0.05% SDS, 1 mM PMSF, 1 μg/ml aprotinin and 0.5 μ/ml leupeptin) was added. Plates were placed on ice for 30 minutes to complete the lysis. p53 protein was detected in de lysates by using the sandwich ELISA, described below.
High binding polystyrene EIA/RIA 96 well plates (Costar 9018) were coated with the capture antibody pAb1801 (Abcam ab28-100) at a concentration of 1 μg/ml in coating buffer (0.1 M NaHCO3 pH8.2), 50 μl per well. The antibody was allowed to adhere overnight at 4° C. Coated plates were washed once with phosphate-buffered saline (PBS)/0.05% Tween 20 and 300 μl of blocking buffer (PBS, 1% bovine serum albumins (BSA)) was added, for an incubation period of 2 hours at room temperature. Dilutions of purified recombinant HIS tagged p53 protein, ranging from 3-200 ng/ml, were made in blocking buffer and used as standards.
Plates were washed twice with PBS/0.05% Tween 20 and blocking buffer or standards were added at 80 μl/well. To the standards, 20 μl of lysis buffer was added. The samples were added to the other wells at 20 μl lysate/well. After an overnight incubation at 4° C., plates were washed twice with PBS/0.05% Tween 20. Aliquots of 100 μl secondary polyclonal antibody p53(FL-393) (Tebubio, sc-6243) at a concentration of 1 μg/ml in blocking buffer were added to each well and allowed to adhere for 2 hours at room temperature. Plates were washed three times with PBS/0.05% Tween 20. Detection antibody anti-rabbit HRP (sc-2004, Tebubio) at 0.04 μg/ml in PBS/1% BSA was added and incubated for 1 hour at room temperature. Plates were washed three times with PBS/0.05% Tween 20 and 100 μl of substrate buffer was added (substrate buffer was prepared shortly before use by adding 1 tablet of 10 mg o-phenylene diamine (OPD) from Sigma and 125 μl 3% H2O2 to 25 ml OPD buffer: 35 mM citric acid, 66 mM Na2HPO4, pH5.6). After 5 to 10 minutes, colour reaction was stopped by adding 50 μl stop buffer (1 M H2SO4) per well. The absorbance at dual wavelengths of 490/655 nm was measured using a Biorad micro plate reader and the results were then analyzed.
For each experiment, controls (containing no drug) and a blank incubation (containing no cells or drugs) were run in parallel. The blank value was subtracted from all control and sample values. For each sample, the value of p53 (in absorbance units) was expressed as the percentage of the value for p53 present in the control. […]

[2] = test system: A2780 ovarian cancer cells; assay: Alamar Blue cell proliferation assay, A2780; conditions: 4-day incubation
Description: Cellular activity of the compounds of formula (I) was determined on A2780 tumour cells using a colorimetric assay for cell toxicity or survival (see example C.2).
The human A2780 ovarian cancer cells were a kind gift from Dr. T. C. Hamilton (Fox Chase Cancer Centre, Pennsylvania, U.S.A.). The cells were cultured in RPMI 1640 medium supplemented with 2 mM L-Glutamine, 50 μg/ml gentamicin and 10% fetal calf serum.
(§1) Resazurin was purchased from Aldrich (Prod. No. 199303). Potassium ferrocyanide, potassium ferricyanide, KH2PO4 and K2HPO4 were purchased from Sigma (Prod. Nos. P9387, P8131, P5655 and P8281, respectively).
(§2) Potassium Phosphate Buffer 0.1 M (PPB) was made as follows: 2.72 gram KH2PO4 and 13.86 gram K2HPO4 were dissolved in 500 ml milli-Q H2O, the pH was adjusted to pH 7.4 and the volume was brought to 1 litre with milli-Q H2O; the buffer was filter sterilised and stored at room temperature. Resazurin stock solution (PPB-A) was prepared fresh by dissolving 45 mg resazurin in 15 ml PBS. 30 mM potassium ferricyanide (PPB-B) was prepared by dissolving 0.987 gram potassium ferricyanide in 100 ml PPB. 30 mM potassium ferrocyanide (PPB-C) was prepared by dissolving 1.266 gram potassium ferrocyanide in 100 ml PPB.
(§3) Mixture of PPB-A, PPB-B and PPB-C was prepared by mixing equal volumes of the respective solutions. Resazurin work solution (herein termed “Alamar Blue” solution) was prepared by diluting said mixture 20×(vol/vol) in PPB and filter sterilising; the Alamar Blue solution could be kept at 4° C. for a maximum of 2 weeks.
(§4) For experiments in 384 wells plates the cells were seeded at a density of 5×10^3 cells/ml in Falcon 384-well culture plates (Life Technologies, Merelbeke, Belgium), black with clear bottom, in 45 μl culture medium. Cells were allowed to adhere to plastic for 24 hr. The tested compound was pre-diluted (1/50 in culture medium) and 5 μl pre-diluted compound was added to the wells. Following 4-day incubation, 10 μl of the Alamar Blue solution was added to each well and the cells were further incubated for 5 hrs (A2780) or 6 hrs (U87MG) at 37° C. The fluorescence intensity was measured for each well with a Fluorescence plate reader (Fluorskan, Labsystems, 540 nm excitation and 590 nm emission)
(§5) The antiproliferative activity was calculated as percentage of remaining viable cells in treated versus control (untreated cells) conditions. Within an experiment, the result for each experimental condition is the mean of 3 replicate wells. When appropriate, the experiments were repeated to establish full concentration-response curves. When appropriate, IC50-values (concentration of the drug, needed to reduce cell growth to 50% of the control) were computed using probit analysis for graded data (Finney, D. J., Probit Analyses, 2nd Ed. Chapter 10, Graded Responses, Cambridge University Press, Cambridge 1962). Herein the effects of test compounds are expressed as pIC50 (the negative log value of the IC50-value) (see Table 4).

[3] = test system: U87MG glioma cells; assay: Alamar Blue cell proliferation assay, U87MG; conditions: 4-day incubation
Description: The human U87MG glioma cells were cultured in DMEM medium supplemented with 2 mM L-Glutamine, 1 mM Sodium Pyruvate, 1.5 g/L Sodium Bicarbonate, 50 μg/ml gentamicin and 10% heat inactivated fetal calf serum. (U87MG cells are human glioblastoma cells with wild type p53. In this cell line MDM2 tightly controls p53 expression).
as §1, §2, §3, §4, §5

Row | SMILES | p53-elisa LAD [1] [µM] | A2780 cell proliferation inhibition pIC50 [2] | U87MG cell proliferation inhibition pIC50 [3] | minimal effective concentration ([1]; Homo sapiens, read-out: p53-elisa LAD) [µM] | IC50 ([2]; Homo sapiens, 96 h, read-out: A2780 cell proliferation inhibition pIC50 (converted)) [µM] | IC50 ([3]; Homo sapiens, U-87 MG, 96 h, read-out: U87MG cell proliferation inhibition pIC50 (converted)) [µM]
1 | COc1ccc2c(CCNc3c(F)cc(Nc4ccncc4)cc3F)c[nH]c2c1 [Compound 13] | >10.0 | <5 | 5.18 |  |  | 
2 | OCc1cc(Nc2cc(F)c(NCCc3c[nH]c4ccccc34)c(F)c2)ccn1 [Compound 14] |  |  |  | > 10 | > 10 | > 10
3 | COc1ccc2c(CCNc3c(F)cc(Nc4ccnc(CO)c4)cc3F)c[nH]c2c1 [Compound 16] | >10.0 | <5 | <5 |  |  | 
4 | COc1ccc2c(CCNc3c(F)cc(Nc4ccnc5c4CCC5O)cc3F)c[nH]c2c1 (centres unmarked) [Compound 19] | >10.0 | <5 | 5.15 |  |  | 
5 | Clc1cc(Nc2ccncc2)cc(Cl)c1NCCc1c[nH]c2ccccc12 [Compound 20] | >10.0 | <5 | <5 |  |  | 
6 | Cc1cccc2c(CCNc3c(Cl)cc(Nc4ccncc4)cc3Cl)c[nH]c12 [Compound 21] | >10.0 | <5 | <5 |  |  | 
7 | COc1ccc2c(CCNc3c(Cl)cc(Nc4ccncc4)cc3Cl)c[nH]c2c1 [Compound 22] | >10.0 | <5 | 5.29 |  |  | 
8 | COc1cccc2c(CCNc3c(Cl)cc(Nc4ccncc4)cc3Cl)c[nH]c12 [Compound 23] | >10.0 | <5 | <5 |  |  | 
9 | COc1ccc2c(CCNc3c(Cl)cc(Nc4ccnc(CO)c4)cc3Cl)c[nH]c2c1 [Compound 27] | >10.0 | <5 | <5 |  |  | 
10 | COc1cccc2c(CCNc3c(Cl)cc(Nc4ccnc(CO)c4)cc3Cl)c[nH]c12 [Compound 28] | >10.0 | <5 | <5 |  |  | 
11 | Cc1cccc2c(CCNc3c(Cl)cc(Nc4ccnc5ccccc45)cc3Cl)c[nH]c12 [Compound 30] | 1.0 | 5.08 | 5.06 |  |  | 
12 | COc1cccc2c(CCNc3c(Cl)cc(Nc4ccnc5ccccc45)cc3Cl)c[nH]c12 [Compound 32] | >10.0 | <5 | 5.48 |  |  | 
13 | OC1CCc2c(Nc3cc(Cl)c(NCCc4c[nH]c5ccccc45)c(Cl)c3)ccnc21 (centres unmarked) [Compound 33] | 3.0 | <5 | <5 |  |  | 
14 | Cc1[nH]c2ccccc2c1CCNc1c(Cl)cc(Nc2ccnc3c2CCC3O)cc1Cl (centres unmarked) [Compound 34] | 1.0 | 5.67 | 5.14 |  |  | 
15 | Cc1cccc2c(CCNc3c(Cl)cc(Nc4ccnc5c4CCC5O)cc3Cl)c[nH]c12 (centres unmarked) [Compound 35] | 1.0 | <5 | <5 |  |  | 
16 | COc1ccc2c(CCNc3c(Cl)cc(Nc4ccnc5c4CCC5O)cc3Cl)c[nH]c2c1 (centres unmarked) [Compound 36] | 10.0 | <5 | 5.08 |  |  | 
17 | COc1cccc2c(CCNc3c(Cl)cc(Nc4ccnc5c4CCC5O)cc3Cl)c[nH]c12 (centres unmarked) [Compound 37] | 3.0 | <5 | <5 |  |  | 
18 | OCc1cc(Nc2cc(Br)c(NCCc3c[nH]c4ccccc34)cc2CO)ccn1 [Compound 52] | >10.0 | <5 | 5.33 |  |  | 
19 | OCc1cc(NCCc2c[nH]c3ccccc23)c(Br)cc1Nc1ccnc2c1CCC2O (centres unmarked) [Compound 54] | >10.0 | <5 |  |  |  | 

Reference: patent publication US11583524B2, “Inhibitors of the interaction between MDM2 and P53” (Janssen Pharmaceutica NV, priority 2007, dated 2023)
